Each block holds one molecule with its values, some of them ahead of it.
Columns and labels:
GCGR = assay: cell-based or functional assay
GIPR = assay: cell-based or functional assay
GLP-1R = assay: cell-based or functional assay
[1] = target: cyno monkey GLP2R (cyno monkey) (UniProt G1E7B0); assay: cell-based or functional assay
mouse GLP2R (mouse) = mouse GLP2R (mouse) (UniProt Q5IXF8); assay: cell-based or functional assay
mouse GLP2R = target: T1, mouse GLP2R (Mus musculus, UniProt Q5IXF8); assay: In vitro potency on mouse GLP2R (cAMP, 665/615 ratio); assay type: cell-based; details: read-out: mGLP-2R IC50
T1 sequence (Q5IXF8 1-512): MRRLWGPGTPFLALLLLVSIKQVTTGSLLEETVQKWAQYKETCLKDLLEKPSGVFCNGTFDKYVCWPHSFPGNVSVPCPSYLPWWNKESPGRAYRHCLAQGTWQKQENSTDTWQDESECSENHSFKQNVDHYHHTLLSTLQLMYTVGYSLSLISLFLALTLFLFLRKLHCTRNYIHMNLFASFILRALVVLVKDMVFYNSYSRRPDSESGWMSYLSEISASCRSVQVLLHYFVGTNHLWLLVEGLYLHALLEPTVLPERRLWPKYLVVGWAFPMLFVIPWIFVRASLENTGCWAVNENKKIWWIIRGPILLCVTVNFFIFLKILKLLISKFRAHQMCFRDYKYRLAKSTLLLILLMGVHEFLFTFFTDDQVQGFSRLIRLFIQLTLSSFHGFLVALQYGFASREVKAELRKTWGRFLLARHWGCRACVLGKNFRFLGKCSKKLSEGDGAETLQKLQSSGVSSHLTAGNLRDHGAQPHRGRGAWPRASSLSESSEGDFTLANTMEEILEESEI

cyno monkey GLP2R = target: T2, cyno monkey GLP2R (Macaca fascicularis, UniProt G1E7B0); assay: In vitro potency on cyno monkey GLP2R (665/615 ratio); assay type: cell-based
T2 sequence (G1E7B0 1-553): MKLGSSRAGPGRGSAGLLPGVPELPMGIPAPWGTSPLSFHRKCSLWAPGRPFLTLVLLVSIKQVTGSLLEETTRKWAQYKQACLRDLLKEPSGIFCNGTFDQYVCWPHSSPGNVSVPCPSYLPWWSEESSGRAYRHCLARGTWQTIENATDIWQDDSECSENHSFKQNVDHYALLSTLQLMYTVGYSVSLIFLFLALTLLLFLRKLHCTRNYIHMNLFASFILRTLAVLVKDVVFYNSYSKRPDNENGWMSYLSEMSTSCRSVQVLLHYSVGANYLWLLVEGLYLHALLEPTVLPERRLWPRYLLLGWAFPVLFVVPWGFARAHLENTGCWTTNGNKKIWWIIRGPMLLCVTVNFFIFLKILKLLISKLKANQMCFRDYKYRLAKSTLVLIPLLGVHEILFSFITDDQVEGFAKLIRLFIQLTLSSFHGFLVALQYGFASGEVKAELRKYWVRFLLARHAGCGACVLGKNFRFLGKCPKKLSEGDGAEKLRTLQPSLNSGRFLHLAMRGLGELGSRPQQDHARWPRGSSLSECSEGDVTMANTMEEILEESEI

[2] = tested on: mouse model of chronic colitis; assay: Chronic DSS-induced colitis in C57BL/6 mice (GLP2-2G-1-EX4-L5A); assay type: in vivo; details: 0.1 and 0.3 mg/kg SC QD 7 days, teduglutide 0.3 mg/kg SC QD
Procedure: Animals were treated daily for 7 days during the last DSS-induction cycle. Treatment was administered either subcutaneously (S) or intraperitoneally (IP) either once daily (QD) or twice daily (BID).
(§1) Bodyweight was monitored 3 times a week. Pharmacokinetic collection occurred 3 and 4 days prior to necropsy. At day 33, a necropsy was performed, and measurements were taken. These measurement included collecting terminal bleed; dissecting out the small intestine; measuring the length and weight of the small intestine; and recording the length and weight of the empty large intestine.

[3] = tested on: chronic DSS-induced colitis model; assay: Chronic DSS-induced colitis in C57BL/6 mice (GLP2-2G-10Nle-1-Ex4-L5A); assay type: in vivo; details: teduglutide 0.5 mg/kg BID
Procedure: as §1, with “Treatment was administered either subcutaneously (S) or intraperitoneally (IP) either once daily (QD) or twice daily (BID). […] Bodyweight” for “Bodyweight”, “Pharmacokinetic collection occurred 3 and 4 days prior to necropsy.” left out

[4] = tested on: mouse model of environmental enteric dysfunction (EED); assay: Weaning undernutrition mouse model of environmental enteric dysfunction (EED); assay type: in vivo, mice
Procedure: A weaning undernutrition model was used to assess the ability of GLP2-2G-10Nle-1K-EX4-K5 to treat environmental enteric dysfunction (EED). All dams were placed on an isocaloric Northeast Brazil (Regional Basic Diet—RBD), which was moderately deficient in protein, fat and minerals when their pups were 10 days old. At weaning (3 weeks of age), pups were placed on either a standard control diet (CD) or continued on RBD. At 4 weeks of age, weanlings were given drug or placebo (0.1 mg/kg formulated in PBS (vehicle)) once a day subcutaneously for 2-3 weeks. Bodyweight and food consumption were measured twice weekly. Stool was collected at weaning, 6 weeks of age, and 8 weeks of age for calorimetry and microbiome. Oral FITC-dextran was used as a measurement of barrier function. At 6 weeks of age, mice were euthanized, and jejunal tissue was collected for morphology, immunohistochemistry, and for chamber analysis of transmucosal resistance and permeability.

[5] = tested on: mouse model of acute colitis; details: in vivo
[6] = tested on: mouse model of acute colitis; assay: DSS-induced acute colitis in C57BL/6 mice (GLP2-2G-10Nle-1K-EX4-K5)
[7] = Pharmacokinetics of peptides in mice (plasma levels by GLP-2R cell based reporter assay); details: mouse, in vivo

IC50 [nM] (665/615 ratio, free cAMP) (GCGR): > 500 nM
IC50 [nM] (665/615 ratio, free cAMP) (GIPR): > 500 nM
IC50 [nM] (665/615 ratio, free cAMP) (GLP-1R): > 500 nM
Molecule: GLP-2 (ligand)

EC50 [nM] (ratio of 665 to 615) [1]: 0.009 nM
IC50 [nM] (665/615 ratio, free cAMP) (mouse GLP2R (mouse)): 0.07 nM
Molecule: Teduglutide (peptide)

IC50 (mouse GLP2R): 0.07 nM
EC50 (cyno monkey GLP2R): 9 pM
Molecule: CC[C@H](C)[C@H](NC(=O)[C@H](Cc1ccccc1)NC(=O)[C@H](CC(=O)O)NC(=O)[C@H](CCCNC(=N)N)NC(=O)[C@H](C)NC(=O)[C@H](C)NC(=O)[C@H](CC(C)C)NC(=O)[C@H](CC(N)=O)NC(=O)[C@H](CC(=O)O)NC(=O)[C@H](CC(C)C)NC(=O)[C@@H](NC(=O)[C@@H](NC(=O)[C@H](CC(N)=O)NC(=O)[C@H](CCSC)NC(=O)[C@H](CCC(=O)O)NC(=O)[C@H](CC(=O)O)NC(=O)[C@H](CO)NC(=O)[C@H](Cc1ccccc1)NC(=O)[C@H](CO)NC(=O)CNC(=O)[C@H](CC(=O)O)NC(=O)CNC(=O)[C@@H](N)Cc1c[nH]cn1)[C@@H](C)O)[C@@H](C)CC)C(=O)N[C@@H](CC(N)=O)C(=O)N[C@@H](Cc1c[nH]c2ccccc12)C(=O)N[C@@H](CC(C)C)C(=O)N[C@H](C(=O)N[C@@H](CCC(N)=O)C(=O)N[C@H](C(=O)N[C@@H](CCCCN)C(=O)N[C@H](C(=O)N[C@H](C(=O)N[C@@H](CC(=O)O)C(=O)O)[C@@H](C)O)[C@@H](C)CC)[C@@H](C)O)[C@@H](C)CC [Teduglutide, teduglutide, reference compound]
bodyweight loss [2]: did not show the same loss in percent of bodyweight
colon length ([3]; doses of 0.1 mg/kg and higher, vs group B): significantly increased
small intestine length ([3]; doses of 0.1 mg/kg and higher, vs untreated): significant increases
colon weight ([3]; doses of 0.3 mg/kg or higher, vs untreated): increased
intestinal permeability (FITC-dextran) ([4]; CD females vs untreated): significant decreases in permeability
small intestine wet body weight/body weight ([4]; CD females vs untreated): significant increase
crypt depths ([4]; CD males vs untreated): longer crypt depths
intestinal permeability (FITC-dextran) ([4]; CD males vs untreated): trend towards decreased permeability
small intestine wet body weight/body weight ([4]; CD males vs untreated): significant increase
villus heights ([4]; CD males vs untreated): significantly longer villus heights
intestinal permeability (FITC-dextran) ([4]; RBD females or RBD males vs untreated): did not significantly affect the permeability
small intestine wet body weight/body weight ([4]; RBD males vs untreated): significant increase
length of the small intestine ([4]; animals weaned to CD and to RBD diet, vs untreated): significant increase
weight gain ([4]; male and female RBD mice weaned to CD, 0.1 mg/kg SC once a day): trends towards greater weight gain
weight ([4]; male and female mice weaned to RBD, 0.1 mg/kg SC once a day): trends towards worsening weight
detectability in plasma after dosing [5]: not detectable after 3 hours post treatment
bodyweight over time ([6]; 3% DSS 5 days, daily treatment 11 days, K5 0.1-1 mg/kg SC, teduglutide 0.5 mg/kg SC, cyclosporin 20 mg/kg IP): did not exhibit significant changes in bodyweight
small intestine length and weight ([6]; groups C-F vs untreated mice): significantly increased
colon length ([6]; groups D-F (K5 0.3, 1 mg/kg; teduglutide 0.5 mg/kg) vs group B): significantly increased
villus height ([6]; jejunum, groups C-F vs untreated mice (groups A-B)): significant increase

half-life ([7]; 10 nmol/kg, read-out: Mouse T½/h (converted)): 511.8 ± 2.64 min
clearance ([7]; CD1 female mice, 10 nmol/kg iv or sc, read-out: Mouse CL/(mL/h/kg) (converted)): 14.4 mL/h/kg
Molecule: CC[C@H](C)[C@@H]1NC(=O)[C@H](Cc2ccccc2)NC(=O)[C@H](CC(=O)O)NC(=O)[C@H](CCCNC(=N)N)NC(=O)[C@H](C)NC(=O)[C@H](C)NC(=O)[C@@H](NC(=O)[C@H](CC(N)=O)NC(=O)[C@H](CC(=O)O)NC(=O)[C@H](CC(C)C)NC(=O)[C@@H](NC(=O)[C@@H](NC(=O)[C@H](CC(N)=O)NC(=O)[C@H](CCSC)NC(=O)[C@H](CCC(=O)O)NC(=O)[C@H](CC(=O)O)NC(=O)[C@H](CO)NC(=O)[C@H](Cc2ccccc2)NC(=O)[C@H](CO)NC(=O)CNC(=O)[C@H](CC(=O)O)NC(=O)CNC(=O)[C@@H](N)Cc2c[nH]cn2)[C@@H](C)O)[C@@H](C)CC)CCCCNC(=O)CN(C(=O)CCNC(=O)CCOCCOCCNC(=O)CCOCCOCCNC(=O)CC[C@H](NC(=O)CCCCCCCCCCCCCCCCC(=O)O)C(=O)O)CC(=O)NCCCC[C@@H](C(=O)N[C@@H](Cc2c[nH]c3ccccc23)C(=O)N[C@@H](CC(C)C)C(=O)N[C@H](C(=O)N[C@@H](CCC(N)=O)C(=O)N[C@H](C(=O)N[C@@H](CCCCN)C(=O)N[C@H](C(=O)N[C@H](C(=O)N[C@@H](CC(=O)O)C(=O)N2CCC[C@H]2C(=O)N[C@@H](CO)C(=O)N[C@@H](CO)C(=O)NCC(=O)N[C@@H](C)C(=O)N2CCC[C@H]2C(=O)N2CCC[C@H]2C(=O)N2CCC[C@H]2C(=O)N[C@@H](CO)C(N)=O)[C@@H](C)O)[C@@H](C)CC)[C@@H](C)O)[C@@H](C)CC)NC1=O [Conjugate 17]
